Square brackets hold non-standard residues; d marks the D form. Ends that are not written are not given here.

The target in test [1] is T1, biotinylated Aβ^1-40 peptide (Homo sapiens, UniProt P05067).
T1 construct: biotinylated Aβ^1-40 peptide (1.7 μg/ml) at 37° C; purchased
Description: direct ELISA, plate-immobilised capture peptide probed with biotinylated Aβ peptide. Format: binding. As to conditions: 1 μg/well capture peptide, 1 μg/ml biotinylated Aβ, 2 hours; compared to scrambled or irrelevant control peptide (FIG. 1a). On the procedure: (§1) FIG. 1a graphically illustrates binding of biotinylated Aβ^1-42 and biotinylated Aβ^1-40 peptide by RI peptide. 96-well plate was coated with the capture peptide (1 μg/well of retro-inverso [RI], scrambled [SCR] or an irrelevant control peptide), blocked with gelatin and probed with 1 μg/ml of biotinylated Aβ peptide for 2 hours and streptavidin peroxidase for 1 hour. Experiments were repeated and were calculated as Mean±SE (N=2) and expressed as pmols Aβ^1-42/ml of binding solution. Graded concentrations of biotinylated Aβ^1-42 peptide was used as a calibration standard.
(§2) Testing the binding and stability of biotinylated Aβ peptides in binding solution. The ability of the biotinylated, nt-bAP, which is represented by Aβ peptides (1-42 and 1-40) to bind the binding element, the retro inverso peptide (RI) was investigated on a direct ELISA as described at the end of this section. RI, scrambled or an irrelevant peptide, immobilized on an ELISA plate was allowed to bind biotinylated Aβ peptides, 1-42 or 1-40.
(In general: An ELISA detects its analyte on a solid surface through an enzyme-linked reagent.)

In test [2] the target is T2, biotinylated Aβ^1-42 peptide (Homo sapiens, UniProt P05067).
T2 construct: biotinylated Aβ^1-42 peptide (1.7 μg/ml) at 37° C; purchased
T2 sequence (P05067 672-713): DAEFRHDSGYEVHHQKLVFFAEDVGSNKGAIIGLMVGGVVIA
The description is as above. Format: binding. As to conditions: 1 μg/well capture peptide, 1 μg/ml biotinylated Aβ, 2 hours; compared to scrambled or irrelevant control peptide (FIG. 1a). On the procedure:
as §1, §2

The next test has as its system Aβ. As to conditions: after 1 day of treatment; on the order of 500 ng/g tissue; cited from earlier work.
For another test, the system named is nt-bAP. The settings on record: according to the thioflavin assay (Zhang et al.); cited from earlier work.
Chain of nt-bAP (P05067 672-711 limits assumed): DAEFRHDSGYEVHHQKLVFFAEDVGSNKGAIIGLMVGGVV

Chain of Aβ (P05067 672-711 limits assumed): as above
T1 sequence (P05067 672-711): as the sequence (P05067 672-711 limits assumed) above

As to “phe-phe-val-leu-lys-Cys ([dF][dF][dV][dL][dK][dC]-NH2; not fully specified; printed as phe-phe-val-leu-lys-Cys) [RI peptide]”, the “binding of biotinylated Aβ^1-40 by capture peptide” value in test [1] was “significant and specific binding”. Moreover, the “binding of biotinylated Aβ^1-42 by capture peptide” value in test [2] is “significant and specific binding”.

GM1: in the test on Aβ, the “levels of Aβ in brain” value is given as “reduced in half”.

As for gelsolin, the “levels of Aβ in brain” value with Aβ is recorded as “reduced in half”.

For phe-phe-val-leu-lys [ffvlk], the “toxicity of aggregates of binding element with nt-bAP” value with nt-bAP is “less toxic than nt-bAP itself”.

These data come from US20060069010A1, “Detoxification depot for Alzheimer's disease” (Senicure LLC, priority 2003, published 2006).
